# Experimental data: patent US20070112015A1, “Substituted dihydropyridines and methods of use” (ChemoCentryx, Inc., priority 2005, published 2007)
# pIC50: −log10 of the molar value.
# Biological target: T1, human C5a receptor (Homo sapiens, UniProt P21730)
# T1 construct: expressed in transfected cells; alternatively isolated human neutrophils (endogenous receptor)
# T1 sequence (P21730 1-350): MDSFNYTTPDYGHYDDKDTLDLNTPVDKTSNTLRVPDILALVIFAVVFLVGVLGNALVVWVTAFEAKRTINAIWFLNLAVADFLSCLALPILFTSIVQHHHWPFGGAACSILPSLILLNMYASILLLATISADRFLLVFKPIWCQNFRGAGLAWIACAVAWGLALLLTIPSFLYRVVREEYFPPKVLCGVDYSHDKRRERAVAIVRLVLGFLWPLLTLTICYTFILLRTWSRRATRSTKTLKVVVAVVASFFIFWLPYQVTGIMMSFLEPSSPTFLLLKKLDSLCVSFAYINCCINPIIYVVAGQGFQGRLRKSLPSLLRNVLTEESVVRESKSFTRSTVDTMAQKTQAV
# Experiment: Inhibition of C5aR ligand binding (125I labeled C5a)
# Details: 125I labeled C5a binding to C5aR expressing cells (L1.2 C5aR cells or neutrophils)
# Description: L1.2 cells (ATCC #HB-12624) were transfected with a mammalian expression vector constitutively expressing the human C5a receptor (Genbank accession # NM_001736). A stable cell line was produced by selection with G418 for the co-expressed resistance marker. These cells were cultured as a suspension in RPMI-1640 medium supplemented with 2 mM L-glutamine, 1.5 g/L sodium bicarbonate, 4.5 g/L glucose, 10 mM HEPES, 1 mM sodium pyruvate, and 10% FBS. Cells were grown under 5% CO2/95% air, 100% humidity at 37° C. and subcultured twice weekly at 1:6 (cells were cultured at a density range of 1×10^5 to 2×10^6 cells/mL) and harvested at 1×10^6 cells/mL. L1.2 C5aR cells express C5a receptor and can be used in C5aR ligand binding and functional assays.
# Neutrophils were isolated from fresh human blood using density separation and centrifigation. Briefly, whole blood is incubated with equal parts 3% dextran and allowed to separate for 45 minutes. After separation, the top layer is then layered on top of 15 mls of Ficoll (15 mls of Ficoll for every 30 mls of blood suspension) and centrifuged for 30 minutes at 400×g with no brake. The pellet at the bottom of the tube is then isolated and resuspended into PharmLyse RBC Lysis Buffer (BD Biosciences, San Jose, Calif.) after which the sample is again centrifuged for 10 minutes at 400×g with brake. The remaining cell pellet is resuspended as appropriate and consists of isolated neutrophils.
# C5aR expressing cells were centrifuged and resuspended in assay buffer (20 mM HEPES pH 7.1, 140 mM NaCl, 1 mM CaCl2, 5 mM MgCl2, and with 0.2% bovine serum albumin) to a concentration of 5×10^6 cells/mL for L1.2 C5aR cells and […]. Binding assays were set up as follows. 0.1 mL of cells (5×10^5 L1.2 C5aR cells/well or 1×10^5 neutrophils) was added to the assay plates containing the compounds, giving a final concentration of ˜2-10 μM each compound for screening (or part of a dose response for compound IC50 determinations). Then 0.1 mL of ^125I labeled C5a (obtained from Perkin Elmer Life Sciences, Boston, Mass.) diluted in assay buffer to a final concentration of ˜50 pM, yielding ˜30,000 cpm per well, was added (using ^125I labeled C5a with L1.2 C5aR cells and with neutrophils), the plates sealed and incubated for approximately 3 hours at 4° C. on a shaker platform. Reactions were aspirated onto GF/B glass filters pre-soaked in 0.3% polyethyleneimine (PEI) solution, on a vacuum cell harvester (Packard Instruments; Meriden, Conn.). Scintillation fluid (40 μl; Microscint 20, Packard Instruments) was added to each well, the plates were sealed and radioactivity measured in a Topcount scintillation counter (Packard Instruments). Control wells containing either diluent only (for total counts) or excess C5a (1 µg/mL, for non-specific binding) were used to calculate the percent of total inhibition for compound. The computer program Prism from GraphPad, Inc. (San Diego, Calif.) was used to calculate IC50 values. IC50 values are those concentrations required to reduce the binding of radiolabeled C5a to the receptor by 50%. (For further descriptions of ligand binding and other functional assays, see Dairaghi, et al., J. Biol. Chem. 274:21569-21574 (1999), Penfold, et al., Proc. Natl. Acad. Sci. USA. 96:9839-9844 (1999), and Dairaghi, et al, J. Biol. Chem. 272:28206-28209 (1997)).
# To evaluate small organic molecules that prevent the C5a receptor from binding ligand, an assay was employed that detected radioactive ligand (i.e, C5a) binding to cells expressing C5aR on the cell surface (for example, L1.2 C5AR cells or isolated human neutrophils). For compounds that inhibited binding, whether competitive or not, fewer radioactive counts are observed when compared to uninhibited controls.
# Equal numbers of cells were added to each well in the plate. The cells were then incubated with radiolabeled C5a. Unbound ligand was removed by washing the cells, and bound ligand was determined by quantifying radioactive counts. […]
row,SMILES,pIC50
1,O=C1CC(c2ccc3c(c2)OCO3)CC2=C1C(c1cccc(O)c1)C(C(=O)OC1CCCC1)=C(CC1CCCC1)N2 (stereo not shown) [Compound 1.009],> 6.00
2,CCOC(=O)C1=C(CCC2CCCC2)NC2=C(C(=O)CC(c3c(C)cc(C)cc3C)C2)C1c1cccc2[nH]ccc12 (stereo not shown) [Compound 1.008],> 6.00
3,CC1=C(C(=O)OC2CCCC2)C(c2cccc(O)c2)C2=C(CN(c3ccccc3)CC2=O)N1 (stereo not shown) [Compound 1.007],5.00 to 6.00
4,Cc1cc(C)c(C2CC(=O)C3=C(C2)NC(C2CC2)=C(C(=O)OC2CCCC2)C3c2cccc(O)c2)c(C)c1 (stereo not shown) [Compound 1.001],> 6.00
5,CC1=C(C(=O)OC2CCCC2)C(c2cccc(O)c2)C2=C(CC(c3ccc(-c4ccccc4)cc3)CC2=O)N1 (stereo not shown) [Compound 1.005],5.00 to 6.00
6,CC1=C(C(=O)OC2CCCC2)C(c2cccc(O)c2)C2=C(CC(C3CCCCC3)CC2=O)N1 (stereo not shown) [Compound 1.004],> 6.00
7,CC1=C(C(=O)OC2CCCC2)C(c2cccc(O)c2)C2=C(CC(c3ccc(C(F)(F)F)cc3)CC2=O)N1 (stereo not shown) [Compound 1.003],> 6.00
8,CC(C)C1=C(C(=O)OC2CCCC2)C(c2cccc(O)c2)C2=C(CC(c3c(Cl)cncc3Cl)CC2=O)N1 (stereo not shown) [Compound 1.010],5.00 to 6.00
9,CC1=C(C(=O)OC2CCCC2)C(c2cccc(O)c2)C2=C(CC(c3ccc4ccccc4c3)CC2=O)N1 (stereo not shown) [Compound 1.006],> 6.00
10,CC1=C(C(=O)OC2CCCC2)C(c2cccc(O)c2)C2=C(CC(c3ccc(C)c(F)c3)CC2=O)N1 (stereo not shown) [Compound 1.002],> 6.00
